The source of these data is US20250304567A1, “PYRROLIDIONE DERIVATIVES AS INHIBITORS OF NF KAPPA B INDUCING KINASE” (priority 2022, published 2025).

The target in assay [1] is Recombinant Human NF-kappaB-Inducing Kinase (NIK/MAP3K14) (Homo sapiens, UniProt Q99558). In words: Inhibition of auto-phosphorylation of recombinant human NIK/MAP3K14 activity (AlphaScreen). In kind it is biochemical. Particulars: 5 μM ATP, 1 nM NIK, average if tested more than once. How it is done:
Assay 1: Inhibition of Auto-Phosphorylation of Recombinant Human NF-kappaB-Inducing Kinase (NIK/MAP3K14) Activity (AlphaScreen™)
NIK/MAP3K14 auto-phosphorylation activity was measured using the AlphaScreen™ (αscreen) format (Perkin Elmer). All compounds tested were dissolved in dimethyl sulfoxide (DMSO) and further dilutions were made in assay buffer. The final DMSO concentration was 0.7% (v/v) in assays. The assay buffer was 50 mM Tris pH 7.5 containing 1 mM EGTA (ethylene glycol tetraacetic acid), 1 mM DTT (dithiothreitol), 0.1 mM Na3VO4, 5 mM MgCl2, and 0.01% Tween®20. The assays were carried out in 384 well Proxiplates (Perkin Elmer). The incubations consisted of the compound, 5 μM Adenosine-5′-triphosphate (ATP), and 1 nM NIK/MAP3K14. Incubations were initiated by the addition of GST-tagged NIK/MAP3K14 enzyme, carried out for 2 h at 25° C. and terminated by addition of stop buffer containing anti-phospho-IKK Ser176/180 antibody. Protein A Acceptor and Glutathione-Donor beads were added before reading using an EnVision Multilabel Plate Reader (Perkin Elmer). The signal obtained in the wells was normalized using high (full enzyme activity, 0.7% DMSO) and low controls (no enzyme activity, 0.7% DMSO, no ATP). IC50's were determined by fitting a sigmoidal curve to % inhibition of control versus Log10 compound concentration.

Assay [2] deals with p-IKKa levels in L363 (NIK translocated multiple myeloma) cells. In words: Effect of compounds on p-IKKa levels in L363 (NIK translocated multiple myeloma) cells (AlphaLISA SureFire Ultra p-IKKa Ser176/180). In kind it is cell-based, human. How it is done:
Assay 2: Effect of Compounds on p-IKKa Levels in L363 (NIK Translocated Multiple Myeloma) Cells
All compounds tested were dissolved and serially diluted in DMSO, 1:3 dilution for 11 points in an Echo compatible plate. 100% DMSO was added to columns 12 and 24 of the plate to serve as high and low signal controls. This compound plate was used to spot 20 nL of compound or DMSO into a Greiner 384 well TC plate (781080). The final DMSO concentration was 0.3% (v/v) in cell assays. Human L363 cells (ATCC) were cultured in RPM11640 medium supplemented with GlutaMax, non-essential amino acids, sodium pyruvate and 10% fetal bovine serum. Cells were routinely maintained at densities of 0.2×10^6 cells per ml-2×10^6 cells per mL at 37° C. in a humidified 5% CO2 atmosphere incubator. Cells were passaged twice a week splitting back to obtain the low density. The day before the assay, cells were washed twice in HBSS (Hank's Balanced Salt Solution), resuspended in Dulbecco's Modified Eagle Medium (DMEM)+0.5% IgG and protease free BSA (Jackson Immuno Research Laboratories), +/−250 ng/ml recombinant human B-cell activating factor (BAFF/BLyS/TNFSF13B) and incubated overnight at 37° C. in a humidified 5% CO2 atmosphere (bulk stimulation with or without BAFF). The next day, the cell concentration was adjusted to 1×10^7 cells/ml in DMEM+/−250 ng/ml BAFF+/−10 μM MG132 and plated at 10 μl/well into compound or DMSO spotted 384 well TC plates. Seeded cells were incubated at 37° C. in a humidified 5% CO2 atmosphere for 6 h. After 6 h, the plates were removed from the incubator and cell lysis was achieved by the addition of 2.5 μl 5× lysis buffer containing protease and phosphatase inhibitors, followed by shaking on a plate shaker at room temperature for 15 min. At the end of this incubation, lysed cells were sequentially treated and incubated with acceptor and donor bead mixes according to the manufacturer's protocol for a 1 plate/2-incubation suspension cell assay (AlphaLISA SureFire Ultra p-IKKa (Ser 176/180) Assay Kit (Perkin Elmer). Plates were read using an EnVision Multilabel Plate Reader (Perkin Elmer). Within an experiment, a concentration response curve for each compound was run in duplicate. The signal obtained in the test wells was normalized using high signal (BAFF stimulated cells, DMSO, MG132) and low signal (unstimulated cells, DMSO) controls. To determine the IC50, a sigmoidal curve was fitted to the plot of % inhibition versus Log10 compound concentration.

[3] abbreviates: Homo sapiens, L-363, p-IKKa levels in L363 cells, average if tested more than once, read-out: Assay 2 IC50.

One may read the IC50 as the point on the concentration scale where inhibition reaches its midpoint.

Read-outs that look alike come from different tables or passages of the source. A value given as a limit tells only on which side of the number the result lay.

Sequence of Recombinant Human NF-kappaB-Inducing Kinase (NIK/MAP3K14) (Q99558 whole entry): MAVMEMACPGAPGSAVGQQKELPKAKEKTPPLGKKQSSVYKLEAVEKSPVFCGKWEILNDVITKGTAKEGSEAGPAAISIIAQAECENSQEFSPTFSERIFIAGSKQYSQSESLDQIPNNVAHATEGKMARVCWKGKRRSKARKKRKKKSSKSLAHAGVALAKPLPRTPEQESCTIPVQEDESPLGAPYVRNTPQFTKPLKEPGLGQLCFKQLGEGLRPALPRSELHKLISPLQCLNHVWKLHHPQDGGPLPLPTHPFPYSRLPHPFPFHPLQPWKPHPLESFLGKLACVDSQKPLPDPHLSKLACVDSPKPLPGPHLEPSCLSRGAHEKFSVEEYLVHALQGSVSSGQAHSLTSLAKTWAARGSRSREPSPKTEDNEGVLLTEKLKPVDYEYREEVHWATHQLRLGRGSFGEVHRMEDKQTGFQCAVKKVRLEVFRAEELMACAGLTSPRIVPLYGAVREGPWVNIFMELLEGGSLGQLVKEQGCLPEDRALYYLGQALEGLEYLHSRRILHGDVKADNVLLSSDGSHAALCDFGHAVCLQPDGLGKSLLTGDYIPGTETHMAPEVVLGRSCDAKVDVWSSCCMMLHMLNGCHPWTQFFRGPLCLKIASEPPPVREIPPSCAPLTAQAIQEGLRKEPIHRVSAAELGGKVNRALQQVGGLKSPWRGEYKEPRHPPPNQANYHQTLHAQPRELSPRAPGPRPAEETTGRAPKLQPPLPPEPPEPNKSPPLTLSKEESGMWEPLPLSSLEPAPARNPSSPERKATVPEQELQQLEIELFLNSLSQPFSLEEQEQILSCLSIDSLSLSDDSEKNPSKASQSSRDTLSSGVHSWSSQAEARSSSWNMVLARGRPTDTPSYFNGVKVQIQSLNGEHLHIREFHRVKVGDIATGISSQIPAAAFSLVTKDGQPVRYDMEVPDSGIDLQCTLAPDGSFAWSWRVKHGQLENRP

Consider `COC[C@@H](Nc1nccc(-c2nc(-c3cccc([C@]4(O)CCN(C)C4=O)c3)cs2)n1)c1ccnn1C` (single isomer, unassigned) [Example 130], for which the half-maximal inhibitory concentration (IC50) in assay [1] was below 100 nM; in assay [2] (setting [3]) it was 100 to 500 nM.

As to `CC(Nc1nccc(-c2csc(-c3cccc([C@]4(O)CCN(C)C4=O)c3)n2)n1)C(=O)N1CCN(C)CC1` (stereo partly drawn) [Example 229], the results for the 50% inhibitory concentration (IC50) in assay [1] and in assay [2] (setting [3]) were 100 to 500 nM and above 501 nM, respectively.

Consider `CN1CC[C@@](O)(c2cccc(-c3csc(-c4ccnc(Nc5cnn(CCO)c5)n4)n3)c2)C1=O` [Example 83, (R)-3-hydroxy-3-(3-(2-(2-((1-(2-hydroxyethyl)-1H-pyrazol-4-yl)amino)pyrimidin-4-yl)thiazol-4-yl)phenyl)-1-methylpyrrolidin-2-one], for which the IC50 in assay [1] was below 100 nM; in assay [2] (setting [3]), above 501 nM.

Consider `C[C@@H](Nc1nccc(-c2nc(-c3cccc([C@]4(O)CCN(C)C4=O)c3)cs2)n1)c1ccnn1C` (single isomer, unassigned) [Example 127], for which the IC50 in assay [1] was below 100 nM; in assay [2] (setting [3]) it was 100 to 500 nM. Turning to `CC(=O)N1CC[C@@H](Nc2nccc(-c3csc(-c4cccc([C@]5(O)CCN(C)C5=O)c4)n3)n2)C1` [Example 212], the half-maximal inhibitory concentration (IC50) in assay [1] is below 100 nM; in assay [2] (setting [3]), above 501 nM. With `CN1CC[C@@](O)(c2cccc(-c3nc(-c4ccnc(Nc5ccn(C)n5)n4)cs3)c2)C1=O` [Example 56, (R)-3-hydroxy-1-methyl-3-(3-(4-(2-((1-methyl-1H-pyrazol-3-yl)amino)pyrimidin-4-yl)thiazol-2-yl)phenyl)pyrrolidin-2-one], the half-maximal inhibitory concentration (IC50) in assay [1] is below 100 nM; in assay [2] (setting [3]), 100 to 500 nM. `CN1CC(Nc2nccc(-c3csc(-c4cccc([C@]5(O)CCN(C)C5=O)c4)n3)n2)CCC1=O` (stereo partly drawn) [Example 222]: the results for the half-maximal inhibitory concentration (IC50) in assay [1] and in assay [2] (setting [3]) were below 100 nM and above 501 nM, respectively. For `CN1CC[C@@](O)(c2cccc(-c3nc(-c4ccnc(NC5[C@@H]6COC[C@@H]56)n4)cs3)c2)C1=O` (stereo partly drawn) [Example 115, (R)-3-(3-(4-(2-(((1R,5R)-3-oxabicyclo[3.1.0]hexan-6-yl)amino)pyrimidin-4-yl)thiazol-2-yl)phenyl)-3-hydroxy-1-methylpyrrolidin-2-one] the same measures were 100 to 500 nM and above 501 nM. For `C[C@H](Nc1nccc(-c2nc(-c3cc([C@]4(O)CCN(C)C4=O)ccn3)cs2)n1)c1ccn(C)n1` (single isomer, unassigned) [Example 156, (R)-3-hydroxy-1-methyl-3-(2-(2-(2-(((S)-1-(1-methyl-1H-pyrazol-3-yl)ethyl)amino)pyrimidin-4-yl)thiazol-4-yl)pyridin-4-yl)pyrrolidin-2-one or (S)-3-hydroxy-1-methyl-3-(2-(2-(2-(((S)-1-(1-methyl-1H-pyrazol-3-yl)ethyl)amino)pyrimidin-4-yl)thiazol-4-yl)pyridin-4-yl)pyrrolidin-2-one] the same measures were below 100 nM and 100 to 500 nM. `Cc1cc(CNc2nccc(-c3csc(-c4cccc([C@]5(O)CCN(C)C5=O)c4)n3)n2)n[nH]1` [Example 113, (R)-3-hydroxy-1-methyl-3-(3-(4-(2-(((3-methyl-1H-pyrazol-5-yl)methyl)amino)pyrimidin-4-yl)thiazol-2-yl)phenyl)pyrrolidin-2-one]: the IC50 in assay [1] was below 100 nM; in assay [2] (setting [3]), above 501 nM. `CN1CC[C@@](O)(c2cccc(-c3nc(-c4ccnc(N[C@H]5CC[C@H](O)C5)n4)cs3)c2)C1=O` [Example 252]: the IC50 is 100 to 500 nM in assay [1] and above 501 nM in assay [2] (setting [3]). For `CCn1cc(Nc2nccc(-c3csc(-c4cccc([C@]5(O)CCN(C)C5=O)c4)n3)n2)cn1` [Example 268, (R)-3-(3-(4-(2-((1-ethyl-1H-pyrazol-4-yl)amino)pyrimidin-4-yl)thiazol-2-yl)phenyl)-3-hydroxy-1-methylpyrrolidin-2-one] the same measures were below 100 nM and 100 to 500 nM. Turning to `Cc1ncc(Nc2nccc(-c3csc(-c4cccc([C@]5(O)CCN(C)C5=O)c4)n3)n2)s1` [Example 249], the IC50 in assay [1] and in assay [2] (setting [3]) was above 501 nM throughout. Take `CN1C(=O)[C@@](O)(c2cncc(-c3csc(-c4ccnc(Nc5ccn(C)n5)n4)n3)c2)C[C@@H]1C(F)(F)F` (single isomer, unassigned) [Example 62]: the IC50 in assay [1] and in assay [2] (setting [3]) was above 501 nM each time. As to `CN1CCC(O)(c2cc(F)cc(-c3csc(-c4ccnc(Nc5ccn(C)n5)n4)n3)c2)C1=O` (single isomer, unassigned) [Example 27, 3-(3-fluoro-5-(2-(2-((1-methyl-1H-pyrazol-3-yl)amino)pyrimidin-4-yl)thiazol-4-yl)phenyl)-3-hydroxy-1-methylpyrrolidin-2-one], the IC50 is below 100 nM in assay [1] and 100 to 500 nM in assay [2] (p-IKKa levels in L363 cells, average if tested more than once, read-out: Assay 2 IC50). With `CN1CC[C@@](O)(c2cccc(-c3nc(-c4ccnc(Nc5cnn(CC6CCCO6)c5)n4)cs3)c2)C1=O` (stereo partly drawn) [Example 72, (R)-3-hydroxy-1-methyl-3-(3-(4-(2-((1-(((R,S)-tetrahydrofuran-2-yl)methyl)-1H-pyrazol-4-yl)amino)pyrimidin-4-yl)thiazol-2-yl)phenyl)pyrrolidin-2-one], the IC50 is below 100 nM in assay [1] and 100 to 500 nM in assay [2] (setting [3]). As for `CN1CC[C@@](O)(c2cccc(-c3nc(-c4ccnc(Nc5nc6ccccc6n5C)n4)cs3)c2)C1=O` [Example 272, (R)-3-Hydroxy-1-methyl-3-(3-(4-(2-((1-methyl-1H-benzo[d]imidazol-2-yl)amino)pyrimidin-4-yl)thiazol-2-yl)phenyl)pyrrolidin-2-one], the 50% inhibitory concentration (IC50) in assay [1] and in assay [2] (setting [3]) was above 501 nM each time.

For `CNC(=O)c1cc(Nc2nccc(-c3csc(-c4cccc([C@]5(O)CCN(C)C5=O)c4)n3)n2)n(C2CCCC2)n1` [Example 15, (R)-1-Cyclopentyl-5-((4-(2-(3-(3-hydroxy-1-methyl-2-oxopyrrolidin-3-yl)phenyl)thiazol-4-yl)pyrimidin-2-yl)amino)-N-methyl-1H-pyrazole-3-carboxamide], the half-maximal inhibitory concentration (IC50) in assay [1] was below 100 nM; in assay [2] (setting [3]), 100 to 500 nM. For `CC(Nc1nccc(-c2csc(-c3cccc([C@]4(O)CCN(C)C4=O)c3)n2)n1)c1ccn(C)n1` (stereo partly drawn) [Example 112, (R)-3-hydroxy-1-methyl-3-(3-(4-(2-(((R,S)-1-(1-methyl-1H-pyrazol-3-yl)ethyl)amino)pyrimidin-4-yl)thiazol-2-yl)phenyl)pyrrolidin-2-one] the same measures were below 100 nM and above 501 nM. For `CN1CC[C@@](O)(c2cccc(-c3nc(-c4ccnc(NCc5ccn(C)n5)n4)cs3)c2)C1=O` [Example 184], the results for the IC50 in assay [1] and in assay [2] (setting [3]) were below 100 nM and above 501 nM, respectively. For the compound `Cc1cncnc1Nc1nccc(-c2csc(-c3cccc([C@]4(O)CCN(C)C4=O)c3)n2)n1` [Example 105, (R)-3-hydroxy-1-methyl-3-(3-(4-(2-((5-methylpyrimidin-4-yl)amino)pyrimidin-4-yl)thiazol-2-yl)phenyl)pyrrolidin-2-one], the concentration for half-maximal inhibition (IC50) in assay [2] (Homo sapiens, L-363, read-out: Assay 2 IC50) is above 501 nM. For the compound `Cc1cc(CNc2nccc(-c3csc(-c4cccc([C@]5(O)CCN(C)C5=O)c4)n3)n2)n[nH]1` [Example 195], the half-maximal inhibitory concentration (IC50) in assay [2] (setting [3]) is above 501 nM.
